Source: patent US8143426B2, “IAP inhibitors” (TetraLogic Pharmaceuticals Corporation, priority 2006, dated 2012)

Molecular target: T1, XIAP BIR3 (Homo sapiens, UniProt P98170)
T1 construct: 40 nM of an IAP-BIR3
Test: Fluorescence polarization binding of IAP antagonists to IAP-BIR3 (competition with AbuRPF-K(5-Fam)-NH2)
Experimental: The binding affinity of illustrative compounds of the present invention to an IAP was determined substantially as described by Nikolovska-Coleska, Z. et. al. (Analytical Biochemistry (2004), vol. 332:261-273) using a variety of fluorogenic substrates and is reported as a Kd value. Briefly, various concentrations of IAP antagonists were mixed with 5 nM fluorescently labeled peptide (AbuRPF-K(5-Fam)-NH2) and 40 nM of an IAP-BIR3 for 15 min at RT in […] of 0.1M Potassium Phosphate buffer, pH 7.5 containing […] bovine g-globulin. Following incubation, the polarization values (mP) were measured on a Victor2V using a 485 nm excitation filter and a 520 nm emission filter. IC50 values were determined from the plot using nonlinear least-squares analysis using GraphPad Prism.

[1] = Table 2, dimeric IAP antagonists
[2] = Table 1, monomeric IAP antagonists (sugar-modified)
[3] = Table 3, monomeric IAP antagonists (piperidine-substituted)

T1 sequence (P98170 241-356 limits assumed): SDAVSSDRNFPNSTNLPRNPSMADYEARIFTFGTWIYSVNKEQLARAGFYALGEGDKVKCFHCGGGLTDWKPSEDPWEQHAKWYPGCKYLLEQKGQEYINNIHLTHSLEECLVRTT

| Compound | Kd [2] [nM] | Kd [3] [nM] | other results |
| --- | --- | --- | --- |
| CNC(C)C(=O)NC(C(=O)N1CC(O)CC1Cc1c(-c2c(CC3CC(O)CN3C(=O)C(NC(=O)C(C)NC)C(C)OC)c3ccc(F)cc3n2C2OC(C)C(O)C(O)C2O)[nH]c2cc(F)ccc12)C(C)OC (centres unmarked) [FF] | – | – | Kd [1]: < 100 nM |
| CN[C@@H](C)C(=O)N[C@H](C(=O)N1CCC[C@H]1Cc1c(-c2ccc(F)cc2)n(C2CCNCC2)c2cc(F)ccc12)[C@@H](C)OC [II] | – | < 100 | – |
| CN[C@@H](C)C(=O)N[C@H](C(=O)N1CCC[C@H]1Cc1c(-c2c(C[C@@H]3CCCN3C(=O)[C@@H](NC(=O)[C@H](C)NC)C(C)C)c3ccc(F)cc3n2C2OC[C@@H](O)[C@H](O)[C@H]2O)[nH]c2cc(F)ccc12)C(C)C (some centres unmarked) [Y] | – | – | Kd [1]: < 100 nM |
| CN[C@@H](C)C(=O)N[C@H](C(=O)N1CCC[C@H]1Cc1c(-c2c(C[C@@H]3CCCN3C(=O)[C@@H](NC(=O)[C@H](C)NC)C(C)C)c3cc(F)ccc3n2C2O[C@H](CO)[C@@H](O)[C@H](O)[C@H]2O)[nH]c2ccc(F)cc12)C(C)C (some centres unmarked) [CC] | – | – | Kd [1]: < 100 nM |
| CNC(C)C(=O)NC(C(=O)N1CCCC1Cc1cn(C2OC(C)C(O)C(O)C2O)c2cc(F)ccc12)C(C)C (centres unmarked) [H] | < 100 | – | – |
| CNC(C)C(=O)NC(C(=O)N1CCCC1Cc1cn(C2OC(C)C(O)C(O)C2O)c2cc(F)ccc12)C1CCCCC1 (centres unmarked) [G] | < 100 | – | – |
| CN[C@@H](C)C(=O)N[C@H](C(=O)N1C[C@@H](O)C[C@H]1Cc1c(-c2ccc(F)cc2)n(C2CCNCC2)c2cc(F)ccc12)C(C)(C)C [LL] | – | < 100 | – |
| CN[C@@H](C)C(=O)N[C@H](C(=O)N1CCCC1Cc1c(-c2ccc(F)cc2)n(C2CCNCC2)c2cc(F)ccc12)C(C)(C)C (some centres unmarked) [HH] | – | < 100 | – |
| CN[C@@H](C)C(=O)N[C@H](C(=O)N1CCCC1Cc1c(-c2c(C[C@@H]3CCCN3C(=O)[C@@H](NC(=O)[C@H](C)NC)C(C)C)c3ccc(F)cc3n2C2O[C@@H](C)[C@@H](O)[C@@H](O)[C@@H]2O)[nH]c2cc(F)ccc12)C(C)C (some centres unmarked) [V] | – | – | Kd [1]: < 100 nM |
| CC(C)C(NC(=O)CN)C(=O)N1CCCC1Cc1c(-c2c(CC3CCCN3C(=O)C(NC(=O)CN)C(C)C)c3ccc(F)cc3n2C2OC(C)C(O)C(O)C2O)[nH]c2cc(F)ccc12 (centres unmarked) [W] | – | – | Kd [1]: 100 to 1000 nM |
| CNC(C)C(=O)NC(C(=O)N1CCCC1Cc1c(-c2ccc(F)cc2)n(C2OCC(O)C(O)C2O)c2cc(F)ccc12)C(C)(C)C (centres unmarked) [Compound A] | < 100 | – | – |
| CNC(C)C(=O)NC(C(=O)N1CCCC1Cc1cn(C2OC(C)C(O)C(O)C2O)c2cc(F)ccc12)C(C)(C)C (centres unmarked) [F] | < 100 | – | – |
| CNC(C)C(=O)NC(C(=O)N1CCCC1Cc1c(-c2c(CC3CCCN3C(=O)C(NC(=O)C(C)NC)C(C)OC)c3ccc(F)cc3n2C2OC(C)C(O)C(O)C2O)[nH]c2cc(F)ccc12)C(C)OC (centres unmarked) [EE] | – | – | Kd [1]: < 100 nM |
| CN[C@H](C(=O)N[C@H](C(=O)N1CCC[C@H]1Cc1c(-c2ccc(F)cc2)n(C2CCNCC2)c2cc(F)ccc12)[C@@H](C)OC)C1CC1 [KK] | – | 100 to 1000 | – |
| CC[C@H](NC)C(=O)N[C@H](C(=O)N1CCC[C@H]1Cc1c(-c2ccc(F)cc2)n(C2CCNCC2)c2cc(F)ccc12)[C@@H](C)OC [JJ] | – | < 100 | – |
| CNC(C)C(=O)NC(C(=O)N1CCCC1Cc1c(-c2c(CC3CCCN3C(=O)C(NC(=O)C(C)NC)C(C)C)c3cc(F)ccc3n2C2OC(C)C(O)C(O)C2O)[nH]c2ccc(F)cc12)C(C)C (centres unmarked) [DD] | – | – | Kd [1]: < 100 nM |
| CN[C@@H](C)C(=O)N[C@H](C(=O)N1CCC[C@H]1Cc1c(-c2c(C[C@@H]3CCCN3C(=O)[C@@H](NC(=O)[C@H](C)NC)C(C)C)c3cc(F)ccc3n2C2O[C@H](CO)[C@H](O)[C@H](O)[C@H]2O)[nH]c2ccc(F)cc12)C(C)C (some centres unmarked) [AA] | – | – | Kd [1]: < 100 nM |
| CN[C@@H](C)C(=O)N[C@H](C(=O)N1CCC[C@H]1Cc1c(-c2ccc(F)cc2)n(C2OC[C@@H](O)[C@H](O)[C@H]2O)c2cc(F)ccc12)C(C)C (some centres unmarked) [B] | < 100 | – | – |
| CCN[C@@H](C)C(=O)N[C@H](C(=O)N1C[C@@H](O)C[C@H]1Cc1c(-c2ccc(F)cc2)n(C2CCNCC2)c2cc(F)ccc12)C(C)(C)C [MM] | – | 100 to 1000 | – |

More lines, main results first:

| Kd [2] [nM] | Kd [3] [nM] | Compound | other results |
| --- | --- | --- | --- |
| < 100 | – | CNC(C)C(=O)NC(C(=O)N1CC(O)CC1Cc1c(-c2ccc(F)cc2)n(C2OC(C)C(O)C(O)C2O)c2cc(F)ccc12)C(C)OC (centres unmarked) [U] | – |
| – | < 100 | CC[C@H](NC)C(=O)N[C@H](C(=O)N1C[C@@H](O)C[C@H]1Cc1c(-c2ccc(F)cc2)n(C2CCNCC2)c2cc(F)ccc12)[C@@H](C)OC [RR] | – |
| – | < 100 | CCN[C@@H](C)C(=O)N[C@H](C(=O)N1C[C@@H](O)C[C@H]1Cc1c(-c2ccc(F)cc2)n(C2CCNCC2)c2cc(F)ccc12)[C@@H](C)OC [QQ] | – |
| – | < 100 | CN[C@@H](C)C(=O)N[C@H](C(=O)N1C[C@@H](O)C[C@H]1Cc1c(-c2ccc(F)cc2)n(C2CCNCC2)c2cc(F)ccc12)[C@@H](C)OC [PP] | – |
| – | 100 to 1000 | CN[C@H](C(=O)N[C@H](C(=O)N1C[C@@H](O)C[C@H]1Cc1c(-c2ccc(F)cc2)n(C2CCNCC2)c2cc(F)ccc12)[C@@H](C)OC)C1CC1 [SS] | – |
| – | 100 to 1000 | CN[C@@H](CO)C(=O)N[C@H](C(=O)N1C[C@@H](O)C[C@H]1Cc1c(-c2ccc(F)cc2)n(C2CCNCC2)c2cc(F)ccc12)C(C)(C)C [NN] | – |
| < 100 | – | CNC(C)C(=O)NC(C(=O)N1CC(O)CC1Cc1c(-c2ccc(F)cc2)n(C2OC(C)C(O)C(O)C2O)c2cc(F)ccc12)C(C)(C)C (centres unmarked) [T] | – |
| < 100 | – | CN[C@@H](C)C(=O)N[C@H](C(=O)N1CCC[C@H]1Cc1cn(C2OC[C@@H](O)[C@H](O)[C@H]2O)c2cc(F)ccc12)C(C)(C)C (some centres unmarked) [N] | – |
| < 100 | – | CN[C@@H](C)C(=O)N[C@H](C(=O)N1CCC[C@H]1Cc1c(-c2ccc(F)cc2)n(C2O[C@@H](C)[C@@H](O)[C@@H](O)[C@@H]2O)c2cc(F)ccc12)[C@@H](C)OC (some centres unmarked) [O] | – |
| – | > 10000 | CN[C@H](C(=O)N[C@H](C(=O)N1C[C@@H](O)C[C@H]1Cc1c(-c2ccc(F)cc2)n(C2CCNCC2)c2cc(F)ccc12)C(C)(C)C)C1CC1 [OO] | – |
